≈ marks a conversion by molar mass, not a printed value. Residues, ends and D or L forms follow the SMILES beside them.
How the values were obtained:
Format in all cases: cell-based
[1] = tested on: S. aureus 103
Experimental: (§1) Standard strains included S. aureus ATCC33592, S. aureus CICC25138, and Salmonella enterica ATCC14028, which were purchased from the China Center of Industrial Culture Collection (CICC). Standard strains including E.coli CMCC44102, Salmonella enterica CMCC50071, and S. aureus CMCC26003 were purchased from the National Center for Medical Culture Collections (CMCC). […] All experiments using the above strains were carried out in a BSL‐2 laboratory. The clinical laboratory of Qilu Hospital detected bacterial resistance to various antibiotics. All strains were streaked on Nutrient Broth (NB) agar medium and incubated overnight at 37°C.
(§2) The antimicrobial activity of the peptides was examined in sterile 96‐well plates using the broth microdilution according to the CLSI standard. The colonies were suspended in saline solution, the turbidity was adjusted to McFarland 0.5 to reach a bacterial concentration of 10^8 CFU/mL, and again diluted 100 times for the inhibition test. Then, 50 µL of bacterial suspension at 1 × 10^6 CFU/mL was incubated with the same volume of different concentrations of peptide solution [serial twofold dilutions in Mueller–Hinton Broth (Hopebio)]. […] All experiments were performed with three independent replicates.

[2] = tested on: E.coli 110
Experimental: as §1, §2

[3] = tested on: E.coli 208
Experimental: as §1, §2

[4] = tested on: S. aureus CMCC26003
Experimental: as §1, §2

[5] = tested on: P. aeruginosa 112
Experimental: as §1, §2

[6] = tested on: S. aureus ATCC33592
Experimental: as §1, §2

[7] = tested on: P. aeruginosa 119
Experimental: as §1, §2

[8] = tested on: K. pneumoniae 7713
Experimental: as §1, §2

[9] = tested on: E. faecium 1042
Experimental: as §1, §2

[10] = tested on: E.coli CMCC44102
Experimental: as §1, §2

[11] = tested on: S. aureus 129
Experimental: as §1, §2

[12] = tested on: S. aureus CICC25138
Experimental: as §1, §2

[13] = tested on: P. aeruginosa 116
Experimental: as §1, §2

[14] = tested on: E. faecium 21
Experimental: as §1, §2

[15] = tested on: S. aureus CMCC26003; experiment: Drug resistance assay, serial passaging; conditions: sub-MIC (1/2 × MIC), n = 3; for passages after which S. aureus developed resistance: passaged every 24 h, resistance = greater than fourfold MIC increase
Experimental: For comparison, the development of resistance to the clinically relevant antibiotics clindamycin (Macklin) and vancomycin (Macklin) was determined. The evolution of resistance by S. aureus CMCC26003 to antibiotics and the peptide was monitored for 20 days of serial passaging in liquid NB. Cells were passaged every 24 h. Briefly, 1 mL of bacterial suspension (1 × 10^6 CFU/mL) was incubated with antibiotics or peptide solution at half the minimal inhibitory concentration at 37°C, 200 rpm. After each incubation period, a new inoculum of 10^6 cells was prepared for inoculation of the following passage containing fresh medium and increased doses of the antimicrobial agent. During the 20 days of serial passaging, the minimum inhibitory concentration of antibiotics or peptides to each generation of cells was determined. The MIC determination method was as previously described. The development of bacterial resistance was defined as a greater than fourfold increase in MICs compared to the initial MICs.

SMILES | MIC (μg/mL) S. aureus 103 [1] [µg/mL] | MIC (μg/mL) E.coli 110 [2] [µg/mL] | MIC (μg/mL) E.coli 208 [3] [µg/mL] | MIC (μg/mL) S. aureus CMCC26003 [4] [µg/mL] | MIC (μg/mL) P. aeruginosa 112 [5] [µg/mL] | MIC (μg/mL) S. aureus ATCC33592 [6] [µg/mL] | MIC (μg/mL) P. aeruginosa 119 [7] [µg/mL] | MIC (μg/mL) K. pneumoniae 7713 [8] [µg/mL] | MIC (μg/mL) E. faecium 1042 [9] [µg/mL] | MIC (μg/mL) E.coli CMCC44102 [10] [µg/mL] | MIC (μg/mL) S. aureus 129 [11] [µg/mL] | MIC (μg/mL) S. aureus CICC25138 [12] [µg/mL] | MIC (μg/mL) P. aeruginosa 116 [13] [µg/mL] | MIC (μg/mL) E. faecium 21 [14] [µg/mL] | passages after which S. aureus developed resistance [15] [passages] | factor of decrease in susceptibility by the 20th passage ([15]; 20 passages)
CC(C)[C@H](N)C(=O)N[C@@H](CCCCN)C(=O)N[C@H](C(=O)N[C@@H](Cc1ccccc1)C(=O)N[C@@H](CCCNC(=N)N)C(=O)N[C@@H](Cc1ccccc1)C(=O)N[C@@H](Cc1ccc(O)cc1)C(=O)N[C@@H](Cc1c[nH]c2ccccc12)C(=O)N[C@@H](CCCCN)C(=O)N[C@@H](CCCNC(=N)N)C(=O)N[C@@H](CCCCN)C(=O)N[C@@H](CCC(N)=O)C(=O)N[C@@H](CCCNC(=N)N)C(=O)N[C@@H](Cc1ccccc1)C(N)=O)C(C)C [QLX-3DV-12] (H-VKVFRFYWKRKQRF-NH2) | 16 (≈ 8.05 µM) | 4 (≈ 2.01 µM) | 8 (≈ 4.03 µM) | 2 (≈ 1.01 µM) | 2 (≈ 1.01 µM) | 32 (≈ 16.1 µM) | 32 (≈ 16.1 µM) | 16 (≈ 8.05 µM) | 2 (≈ 1.01 µM) | 8 (≈ 4.03 µM) | 16 (≈ 8.05 µM) | 32 (≈ 16.1 µM) | 8 (≈ 4.03 µM) | 4 (≈ 2.01 µM) | – | –
CC(C)C[C@H](NC(=O)[C@H](CC(C)C)NC(=O)[C@H](Cc1ccccc1)NC(=O)[C@H](CCCNC(=N)N)NC(=O)[C@H](CCCNC(=N)N)NC(=O)[C@H](CCCNC(=N)N)NC(=O)[C@H](CC(C)C)NC(=O)[C@H](CC(C)C)NC(=O)[C@H](CCCNC(=N)N)NC(=O)[C@H](CCCNC(=N)N)NC(=O)[C@H](CCC(N)=O)NC(=O)[C@H](Cc1c[nH]c2ccccc12)NC(=O)[C@@H](NC(=O)[C@H](CC(C)C)NC(=O)[C@H](CCCNC(=N)N)NC(=O)[C@H](Cc1ccc(O)cc1)NC(=O)[C@@H](N)CCC(N)=O)C(C)C)C(=O)N[C@@H](CCCCN)C(=O)N[C@@H](C)C(N)=O [QLX-3DV-13] (H-QYRLVWQRRLLRRRFLLKA-NH2) | 16 (≈ 6.22 µM) | 8 (≈ 3.11 µM) | 16 (≈ 6.22 µM) | 4 (≈ 1.56 µM) | 2 (≈ 0.778 µM) | 64 (≈ 24.9 µM) | 16 (≈ 6.22 µM) | 64 (≈ 24.9 µM) | 2 (≈ 0.778 µM) | 4 (≈ 1.56 µM) | 16 (≈ 6.22 µM) | 32 (≈ 12.4 µM) | 32 (≈ 12.4 µM) | 4 (≈ 1.56 µM) | – | –
CC[C@H](C)[C@H](NC(=O)[C@@H](NC(=O)[C@@H](N)CCCCN)C(C)C)C(=O)N[C@@H](CC(N)=O)C(=O)N[C@@H](Cc1ccc(O)cc1)C(=O)N[C@@H](CCCCN)C(=O)N[C@@H](CC(C)C)C(=O)N[C@@H](CCCNC(=N)N)C(=O)N[C@@H](Cc1ccccc1)C(=O)N[C@@H](Cc1ccccc1)C(=O)N[C@@H](Cc1c[nH]c2ccccc12)C(=O)N[C@@H](C)C(=O)N1CCC[C@H]1C(=O)N[C@@H](Cc1c[nH]c2ccccc12)C(=O)N[C@@H](Cc1ccccc1)C(=O)N[C@@H](CCCCN)C(=O)N[C@@H](CCCCN)C(=O)N[C@@H](CC(C)C)C(N)=O [QLX-3DV-15] (H-KVINYKLRFFWAPWFKKL-NH2) | 16 (≈ 6.71 µM) | 8 (≈ 3.36 µM) | 4 (≈ 1.68 µM) | 4 (≈ 1.68 µM) | 4 (≈ 1.68 µM) | 16 (≈ 6.71 µM) | 64 (≈ 26.8 µM) | 64 (≈ 26.8 µM) | 4 (≈ 1.68 µM) | 8 (≈ 3.36 µM) | 8 (≈ 3.36 µM) | 16 (≈ 6.71 µM) | 32 (≈ 13.4 µM) | 4 (≈ 1.68 µM) | – | –
CC[C@H](C)[C@H](NC(=O)[C@H](CC(C)C)NC(=O)[C@H](C)NC(=O)[C@H](CCCNC(=N)N)NC(=O)[C@@H](N)CCCNC(=N)N)C(=O)N[C@@H](Cc1ccc(O)cc1)C(=O)N[C@@H](CC(N)=O)C(=O)N[C@@H](CC(C)C)C(=O)N[C@H](C(=O)N[C@@H](CCCCN)C(=O)N[C@@H](CCCCN)C(=O)N[C@@H](Cc1c[nH]c2ccccc12)C(=O)N[C@@H](C)C(=O)N[C@@H](Cc1ccc(O)cc1)C(=O)N[C@@H](CO)C(=O)N[C@@H](Cc1ccc(O)cc1)C(=O)N[C@@H](CO)C(=O)N[C@@H](C)C(=O)N[C@H](C(N)=O)[C@@H](C)O)C(C)C [QLX-3DV-16] (H-RRALIYNLVKKWAYSYSAT-NH2) | 64 (≈ 27.8 µM) | 8 (≈ 3.47 µM) | 16 (≈ 6.95 µM) | 4 (≈ 1.74 µM) | 16 (≈ 6.95 µM) | 128 (≈ 55.6 µM) | 128 (≈ 55.6 µM) | 16 (≈ 6.95 µM) | 16 (≈ 6.95 µM) | 4 (≈ 1.74 µM) | 128 (≈ 55.6 µM) | 128 (≈ 55.6 µM) | 16 (≈ 6.95 µM) | 8 (≈ 3.47 µM) | – | –
CCC[C@@H]1C[C@@H](C(=O)N[C@@H]([C@H]2O[C@H](SC)[C@H](O)[C@@H](O)[C@H]2O)[C@H](C)Cl)N(C)C1 [clindamycin] | – | – | – | – | – | – | – | – | – | – | – | – | – | – | 15 | –
CN[C@H](CC(C)C)C(=O)N[C@H]1C(=O)N[C@@H](CC(N)=O)C(=O)N[C@H]2C(=O)N[C@H]3C(=O)N[C@H](C(=O)N[C@H](C(=O)O)c4cc(O)cc(O)c4-c4cc3ccc4O)[C@H](O)c3ccc(c(Cl)c3)Oc3cc2cc(c3O[C@@H]2O[C@H](CO)[C@@H](O)[C@H](O)[C@H]2O[C@H]2C[C@](C)(N)[C@H](O)[C@H](C)O2)Oc2ccc(cc2Cl)[C@H]1O [vancomycin] | – | – | – | – | – | – | – | – | – | – | – | – | – | – | 18 | 64

Source: paper PMC13185819, “De Novo Multi‐Mechanism Antimicrobial Peptide Design via Multimodal Deep Learning” (Advanced Science, 2026)
